Read-outs that look alike come from different tables or passages of the source.
What was measured:
[1] = system: HIV-1 infection of TZM-bl cells; test: HIV-1 infectivity enhancement assay, β-galactosidase luminescence; assay type: cell-based; settings: for Log10 Inf. rel. to EF-C: log10 of HIV-1 infection of TZM-bl cells relative to EF-C, Fig S15 source data, asymmetric std dev errors; for Rel-to EFC / n-fold to virus: Fig S8 panels B, D
[2] = Zeta-potential measurement; assay type: physicochemical; settings: for Zeta-pot. / mV: zeta potential of peptide, Fig S15 source data
Outline: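 Surface charge of aggregated peptides: 1 mg/mL solutions in PBS (pH 7.4) incubated 1 d at RT, diluted into 1 mM KCl just before reading. Electrophoretic mobility converted to zeta potential by the Smoluchowski formula; triplicate measurements from two separate experiments averaged.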

[3] = Turbidity, derived count rate of scattered light; assay type: physicochemical; settings: for Zeta Count Rate / kcps / Count Rate: derived count rate of scattered light; for Log Count Rate: log of derived count rate; for Count Rate: turbidity
Outline: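 One-day room-temperature aggregation at 1 mg/mL in PBS (pH 7.4) preceded measurement; samples then went into 1 mM KCl. Triplicates per sample, two independent experiments averaged.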

[4] = Feb2021, 1.3 µM value relative to virus only (0 µM)
[5] = Feb2021, Log10 of infectivity relative to EF-C
[6] = Feb2021, n-fold enhancement relative to EF-C
[7] = Feb2021, n-fold infectivity relative to EF-C
[8] = Feb2021, unrounded values of the 1.3 µM column
[9] = Feb2021 run, infectivity n-fold relative to virus alone
[10] = Feb2021 run, log10 of infectivity relative to EF-C
[11] = Feb2021 run, n-fold infectivity relative to EF-C
[12] = infectivity class (low / medium / high) of each library peptide, main list in c1-c6, same classes repeated in sub-lists of sequences containing the hydrophobicity/charge patterns P+,H0,P+,H0,P0,H0,P0, P+,H0,P0,H0,P0,H0,P0, P+,H0,P0,H0
[13] = category 1 or 0 from count rate, key not given
[14] = mean, std deviation in next column
[15] = mean, std deviation in separate column
[16] = infectivity class (low / medium / high) of the peptide in the sequence-pattern analysis, Fig. S22-A4, class limits not given
[17] = Feb2021, figures match the 1.3 µM column
[18] = Feb2021, infectivity relative to virus only
[19] = infectivity enhancement relative to EF-C
[20] = infectivity n-fold relative to virus alone
[21] = Fig S8 panels A, C, asymmetric log errors

Substance	n-fold to virus (Feb2021) [1, 4]	Log10 of Rel to EFC (Feb2021) [1, 5]	Rel-to EFC (Feb-2021) [1, 6]	Rel-to EFC (Feb-2021) [1, 7]	Absolute Infectivity / RLU /s (Feb2021) [1, 8] [RLU /s]	n-fold to virus (Feb2021) [1, 9]	Log10 of Rel to EFC (Feb2021) [1, 10]	Rel-to EFC (Feb-2021) [1, 11]	infectivity [1, 12]	Log10 Inf. rel. to EF-C [1]	Zeta category ( +1 = if > 4 mV;-1 = if < -4 mV; 0 = -4mV to 4 mV) [2]	Zeta category ( +1 = if > 4 mV;-1 = if < -4 mV; 0 = -4mV to 4 mV) ([2]; category from zeta potential)	Zeta Pot. / mV ([2]; mean, Std Zeta in next column) [mV]	Zeta Pot. / mV ([2]; mean, Std in separate column) [mV]	Zeta-pot. / mV [2] [mV]	Zeta Count Rate Category ([3]; category 1/0, no key printed)	Zeta Count Rate Category [3, 13]	Zeta Count Rate / kcps [3, 14] [kcps]	Zeta Count Rate / kcps [3, 15] [kcps]	further results
CKAKAQANM [BL9]	1.316	-1.504	0.03133	0.03133	430	1.316	-1.504	0.03133	low	-1.504	-1 (-1 = if < -4 mV)	-1 (-1 = if < -4 mV)	-7.773	-7.773	-7.773	1	1	207.3	207.3	–
KIKIKIKIYYYY [JR7]	–	0.1402	–	–	–	–	–	–	–	0.1402	–	–	13.3	–	13.3	–	–	9918	–	Rel-to EFC (Feb-2021) ([1]; Feb2021, infectivity enhancement relative to EF-C): 1.381; infectivity [1, 16]: high; Zeta category ( +1 = if > 4 mV;-1 = if < -4 mV; 0 = -4mV to 4 mV) ([2]; category derived from the zeta potential): 1 (+1 = if > 4 mV); Zeta Count Rate Category ([3]; category 1 or 0 derived from the count rate, key not given): 1
KIKIKIQI [TG13]	–	-1.014	0.09675	0.09675	–	–	–	–	low	-1.014	1 (+1 = if > 4 mV)	1 (+1 = if > 4 mV)	6.97	–	6.97	–	1	999.1	–	Absolute Infectivity / RLU /s (Feb2021) [1, 17]: 2073 RLU /s; n-fold to virus (Feb2021) [1, 18]: 4.065; infectivity [1, 16]: low; Zeta Pot. / mV [2]: 6.97 mV; Zeta Count Rate Category ([3]; category 1 / 0, no key given): 1; Zeta Count Rate / kcps [3]: 999.1 kcps
CKAKAQANMWQ [BL8]	1.837	-1.359	0.04371	0.04371	600	1.837	-1.359	0.04371	low	-1.359	0 (0 = -4mV to 4 mV)	0 (0 = -4mV to 4 mV)	0.7373	0.7373	0.7373	0	0	8.967	8.967	Rel-to EFC [1, 19]: 0.04371; n-fold to virus [1, 20]: 1.837; Log Count Rate [3, 21]: 0.9528; Log Count Rate ([3]; Fig S8 panels B, D): 0.9528; Count Rate ([3]; Fig S8 panels B, D): 8.97
KIKIQI [JJA4]	2.845	-1.169	0.06771	0.06771	550	2.845	-1.169	0.06771	low	-1.169	-1 (-1 = if < -4 mV)	-1 (-1 = if < -4 mV)	-5.63	-5.63	-5.63	1	1	108.3	108.3	–
KWKWQW [KB3]	0.6105	–	–	0.01453	386.7	–	–	–	low	-1.838	1 (+1 = if > 4 mV)	–	7.55	–	7.55	1	–	1545	–	Log10 of Rel to EFC (Feb2021) ([1]; Feb2021, log10 of infectivity relative to EF-C): -1.838; Rel-to EFC [1, 19]: 0.01453; n-fold to virus [1, 20]: 0.6105; Log Count Rate [3, 21]: 3.189; Log Count Rate ([3]; Fig S8 panels B, D): 3.189; Count Rate ([3]; Fig S8 panels B, D): 1544.87
QCKAKAQANMWQ [CK22]	3.018	-1.144	0.07183	0.07183	2767	3.018	-1.144	0.07183	low	-1.144	-1 (-1 = if < -4 mV)	-1 (-1 = if < -4 mV)	-8.05	-8.05	-8.05	1	1	427.5	427.5	–
KFKQFFNMWQ [JG5]	–	-1.049	0.08925	0.08925	–	–	–	–	low	-1.0494	0 (0 = -4mV to 4 mV)	0 (0 = -4mV to 4 mV)	-3.43	–	-3.43	–	1	236.9	–	Absolute Infectivity / RLU /s (Feb2021) [1, 17]: 1000 RLU /s; n-fold to virus (Feb2021) [1, 18]: 3.75; Zeta Pot. / mV [2]: -3.43 mV; Zeta Count Rate Category ([3]; category 1 / 0, no key given): 1; Zeta Count Rate / kcps [3]: 236.9 kcps

Reference: PMC10447463, “Data-mining unveils structure–property–activity correlation of viral infectivity enhancing self-assembling peptides” (Nature Communications, 2023)
